The source of these data is patent publication US20260022142A1, “MACROCYCLIC IMMUNOMODULATORS” (Bristol-Myers Squibb Company, priority 2022, published 2026).

Bridge positions count the residues as written; N and C are the ends. Square brackets hold non-standard residues; d marks the D form. Peptide text beside a SMILES is read from it. * marks the point of attachment. ξ: configuration not given here. Phe(4-COOH) = N[C@@H](Cc1ccc(C(=O)O)cc1)C(=O)O; Bip = N[C@@H](Cc1ccc(-c2ccccc2)cc1)C(=O)O; Phe(3-Me) = Cc1cccc(C[C@H](N)C(=O)O)c1; hArg = N=C(N)NCCCC[C@H](N)C(=O)O; Cha = N[C@@H](CC1CCCCC1)C(=O)O; Cit = NC(=O)NCCC[C@H](N)C(=O)O; Thr(3ξ) = CC(O)[C@H](N)C(=O)O; 12Ado = NCCCCCCCCCCCC(=O)O; Carboxymethyl = O=C(O)C*; Orn = NCCC[C@H](N)C(=O)O; Aun = NCCCCCCCCCCC(=O)O; Dab = NCC[C@H](N)C(=O)O; Dap = NC[C@H](N)C(=O)O; AEEA = NCCOCCOCC(=O)O

The test deals with T1, PD-1/PD-L1 interaction (PE-labeled human PD-L1-Ig binding to Jurkat cell line over-expressing human PD-1) (Homo sapiens, UniProt Q15116).
T1 construct: expressed in transfected cells; host or cells: Jurkat
T1 sequence (Q15116 25-288): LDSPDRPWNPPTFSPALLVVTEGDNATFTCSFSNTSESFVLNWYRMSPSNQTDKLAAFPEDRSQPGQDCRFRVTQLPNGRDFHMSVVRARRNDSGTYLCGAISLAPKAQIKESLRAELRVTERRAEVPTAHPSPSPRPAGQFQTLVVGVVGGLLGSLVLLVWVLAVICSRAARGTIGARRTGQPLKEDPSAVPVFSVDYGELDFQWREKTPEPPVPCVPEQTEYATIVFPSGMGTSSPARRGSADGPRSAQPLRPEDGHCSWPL
Nature of the test: Jurkat-PD-1 Cell Binding High-Content Screening Assay (CBA). Type of test: cell-based. Conditions: Jurkat cell line over-expressing human PD-1; PE-labeled PD-L1-Ig 20 nM final; read-out: Jurkat hPD1-PDL1 IC50. The method in brief: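 Read-out is high-content imaging of cell-bound phycoerythrin-tagged PD-L1-Ig on fixed, Hoechst-counterstained Jurkat cells that over-express human PD-1. Compound exposure lasts 2 h at 37° C before the labeled ligand (20 nM final) is added for a further hour.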
For orientation: IC50 means the midpoint of a concentration-inhibition curve. As to `CC(C)C[C@H]1NC(=O)[C@H](CCCN)NC(=O)[C@H](C(C)C)NC(=O)[C@H](Cc2ccc(-c3ccccc3)cc2)NC(=O)[C@H](C(C)C)NC(=O)[C@H](Cc2c[nH]c3ccccc23)NC(=O)[C@H](CC(=O)O)NC(=O)[C@H](Cc2ccc(OCC(=O)O)cc2)NC(=O)[C@H](CCCCNC(=N)N)NC(=O)CSC[C@@H](C(=O)N[C@@H](CCN)C(=O)NCCOCCOCC(=O)N[C@@H](CCCN)C(=O)NCCCCCCCCCCCC(=O)O)NC(=O)[C@H](CO)NC(=O)[C@H](C(C)C)NC(=O)[C@H](CC2CCCCC2)NC(=O)[C@H](CC(N)=O)NC1=O` [Compound 3177] ({CH2CO}-[hArg]Y(Carboxymethyl)DWV[Bip]V[Orn][dL]N[Cha]VSC[Dab][AEEA][Orn][12Ado]-OH; thioether N-14), the IC50 turned out to be 27.3 nM. `CC(C)C[C@H]1NC(=O)[C@H](CCCN)NC(=O)[C@H](C(C)C)NC(=O)[C@H](Cc2ccc(-c3ccccc3)cc2)NC(=O)[C@H](C(C)C)NC(=O)[C@H](Cc2c[nH]c3ccccc23)NC(=O)[C@H](CC(=O)O)NC(=O)[C@H](Cc2ccc(OCC(=O)O)cc2)NC(=O)[C@H](CCCCNC(=N)N)NC(=O)CSC[C@@H](C(=O)N[C@@H](CCCN)C(=O)NCCOCCOCC(=O)N[C@@H](CCCN)C(=O)NCCCCCCCCCCC(=O)O)NC(=O)[C@H](CO)NC(=O)[C@H](C(C)C)NC(=O)[C@H](CC2CCCCC2)NC(=O)[C@H](CC(N)=O)NC1=O` [Compound 3178] ({CH2CO}-[hArg]Y(Carboxymethyl)DWV[Bip]V[Orn][dL]N[Cha]VSC[Orn][AEEA][Orn][Aun]-OH; thioether N-14): the IC50 came to 14.8 nM.

For the compound `CC(C)C[C@H]1NC(=O)[C@H](CCCN)NC(=O)[C@H](C(C)C)NC(=O)[C@H](Cc2ccc(-c3ccccc3)cc2)NC(=O)[C@H](C(C)C)NC(=O)[C@H](Cc2c[nH]c3ccccc23)NC(=O)[C@H](CC(=O)O)NC(=O)[C@H](Cc2ccc(OCC(=O)O)cc2)NC(=O)[C@H](Cc2ccc(OCC(=O)O)cc2)NC(=O)CSC[C@@H](C(=O)NCC(=O)NCCOCCOCC(=O)N[C@@H](CCCN)C(=O)NCCCCCCCCCCCC(=O)O)NC(=O)[C@H](CO)NC(=O)[C@H](C(C)C)NC(=O)[C@H](CC2CCCCC2)NC(=O)[C@H](CCN)NC1=O` [Compound 3179] ({CH2CO}-Y(Carboxymethyl)Y(Carboxymethyl)DWV[Bip]V[Orn][dL][Dab][Cha]VSCG[AEEA][Orn][12Ado]-OH; thioether N-14), the IC50 amounted to 16.1 nM. With `CC(C)C[C@H]1NC(=O)[C@H](CCCN)NC(=O)[C@H](C(C)C)NC(=O)[C@H](Cc2ccc(-c3ccccc3)cc2)NC(=O)[C@H](C(C)C)NC(=O)[C@H](Cc2c[nH]c3ccccc23)NC(=O)[C@H](CC(=O)O)NC(=O)[C@H](Cc2ccc(C(=O)O)cc2)NC(=O)[C@H](Cc2ccc(OCC(=O)O)cc2)NC(=O)CSC[C@@H](C(=O)NCC(=O)NCCOCCOCC(=O)N[C@@H](CCCN)C(=O)NCCCCCCCCCCCC(=O)O)NC(=O)[C@H](CO)NC(=O)[C@H](C(C)C)NC(=O)[C@H](CC2CCCCC2)NC(=O)[C@H](CCN)NC1=O` [Compound 3180] ({CH2CO}-Y(Carboxymethyl)[Phe(4-COOH)]DWV[Bip]V[Orn][dL][Dab][Cha]VSCG[AEEA][Orn][12Ado]-OH; thioether N-14) the figure was 16.8 nM; with `CC(C)C[C@H]1NC(=O)[C@H](CCCN)NC(=O)[C@H](C(C)C)NC(=O)[C@H](Cc2ccc(-c3ccccc3)cc2)NC(=O)[C@H](C(C)C)NC(=O)[C@H](Cc2c[nH]c3ccccc23)NC(=O)[C@H](CC(=O)O)NC(=O)[C@H](Cc2ccc(OCC(=O)O)cc2)NC(=O)[C@H](CCCNC(=N)N)NC(=O)CSC[C@@H](C(=O)NCC(=O)NCCOCCOCC(=O)N[C@@H](CCCN)C(=O)NCCCCCCCCCCCC(=O)O)NC(=O)[C@H](CO)NC(=O)[C@H](C(C)C)NC(=O)[C@H](CC2CCCCC2)NC(=O)[C@H](CCN)NC1=O` [Compound 3181] ({CH2CO}-RY(Carboxymethyl)DWV[Bip]V[Orn][dL][Dab][Cha]VSCG[AEEA][Orn][12Ado]-OH; thioether N-14), 7.6 nM. With `Cc1cccc(C[C@@H]2NC(=O)[C@H](CC(=O)O)NC(=O)[C@H](Cc3ccc(OCC(=O)O)cc3)NC(=O)[C@H](CCCCNC(=N)N)NC(=O)CSC[C@@H](C(=O)NCC(=O)N[C@@H](CCC(=O)O)C(=O)NCCCCCCCCCCCC(=O)O)NC(=O)[C@H](CO)NC(=O)[C@H](C(C)C)NC(=O)[C@H](CC3CCCCC3)NC(=O)[C@H](C(C)O)NC(=O)[C@@H](CC(C)C)NC(=O)[C@H](CCCN)NC(=O)[C@H](CCCNC(N)=O)NC(=O)[C@H](Cc3ccc(-c4ccccc4)cc3)NC(=O)[C@H](C(C)C)NC2=O)c1` (stereo partly drawn) [Compound 3182] ({CH2CO}-[hArg]Y(Carboxymethyl)D[Phe(3-Me)]V[Bip][Cit][Orn][dL][Thr(3ξ)][Cha]VSCGE[12Ado]-OH; thioether N-14) the figure was 45.9 nM. With `Cc1cccc(C[C@@H]2NC(=O)[C@H](CC(=O)O)NC(=O)[C@H](Cc3ccc(OCC(=O)O)cc3)NC(=O)[C@H](CCCCNC(=N)N)NC(=O)CSC[C@@H](C(=O)NCC(=O)N[C@@H](CCC(=O)O)C(=O)NCCCCCCCCCCCC(=O)O)NC(=O)[C@H](CO)NC(=O)[C@H](C(C)C)NC(=O)[C@H](CC3CCCCC3)NC(=O)[C@H](CCN)NC(=O)[C@@H](CC(C)C)NC(=O)[C@H](CCCN)NC(=O)[C@H](CCCNC(N)=O)NC(=O)[C@H](Cc3ccc(-c4ccccc4)cc3)NC(=O)[C@H](C(C)C)NC2=O)c1` [Compound 3183] ({CH2CO}-[hArg]Y(Carboxymethyl)D[Phe(3-Me)]V[Bip][Cit][Orn][dL][Dab][Cha]VSCGE[12Ado]-OH; thioether N-14) the figure was 821 nM. Turning to `Cc1cccc(C[C@@H]2NC(=O)[C@H](CC(=O)O)NC(=O)[C@H](Cc3ccc(OCC(=O)O)cc3)NC(=O)[C@H](CCCCNC(=N)N)NC(=O)CSC[C@@H](C(=O)NCC(=O)NCCOCCOCC(=O)N[C@@H](CCC(=O)O)C(=O)NCCCCCCCCCCCC(=O)O)NC(=O)[C@H](CO)NC(=O)[C@H](C(C)C)NC(=O)[C@H](CC3CCCCC3)NC(=O)[C@H](CCN)NC(=O)[C@@H](CC(C)C)NC(=O)[C@H](CCCN)NC(=O)[C@H](C(C)C)NC(=O)[C@H](Cc3ccc(-c4ccccc4)cc3)NC(=O)[C@H](C(C)C)NC2=O)c1` [Compound 3184] ({CH2CO}-[hArg]Y(Carboxymethyl)D[Phe(3-Me)]V[Bip]V[Orn][dL][Dab][Cha]VSCG[AEEA]E[12Ado]-OH; thioether N-14), the half-maximal inhibitory concentration (IC50) is 10.1 nM. For the compound `Cc1cccc(C[C@@H]2NC(=O)[C@H](CC(=O)O)NC(=O)[C@H](Cc3ccc(OCC(=O)O)cc3)NC(=O)[C@H](CCCCNC(=N)N)NC(=O)CSC[C@@H](C(=O)NCC(=O)NCCOCCOCC(=O)N[C@@H](CCC(=O)O)C(=O)NCCCCCCCCCCCC(=O)O)NC(=O)[C@H](CO)NC(=O)[C@H](C(C)C)NC(=O)[C@H](CC3CCCCC3)NC(=O)[C@H](CCN)NC(=O)[C@@H](CC(C)C)NC(=O)[C@H](CCCN)NC(=O)[C@H](CCCNC(N)=O)NC(=O)[C@H](Cc3ccc(-c4ccccc4)cc3)NC(=O)[C@H](C(C)C)NC2=O)c1` [Compound 3185] ({CH2CO}-[hArg]Y(Carboxymethyl)D[Phe(3-Me)]V[Bip][Cit][Orn][dL][Dab][Cha]VSCG[AEEA]E[12Ado]-OH; thioether N-14), the IC50 is 17.6 nM. Take `Cc1cccc(C[C@@H]2NC(=O)[C@H](CC(=O)O)NC(=O)[C@H](Cc3ccc(OCC(=O)O)cc3)NC(=O)[C@H](CCCCNC(=N)N)NC(=O)CSC[C@@H](C(=O)N[C@@H](CCCN)C(=O)N[C@@H](CO)C(=O)NCCCCCCCCCCCC(=O)O)NC(=O)[C@H](C(C)O)NC(=O)[C@H](C(C)C)NC(=O)[C@H](CC3CCCCC3)NC(=O)[C@H](CCN)NC(=O)[C@@H](CC(C)C)NC(=O)[C@H](CCCN)NC(=O)[C@H](CCCNC(N)=O)NC(=O)[C@H](Cc3ccc(-c4ccccc4)cc3)NC(=O)[C@H](C(C)C)NC2=O)c1` (stereo partly drawn) [Compound 3187] ({CH2CO}-[hArg]Y(Carboxymethyl)D[Phe(3-Me)]V[Bip][Cit][Orn][dL][Dab][Cha]V[Thr(3ξ)]C[Orn]S[12Ado]-OH; thioether N-14): the IC50 is 9.7 nM. With `Cc1cccc(C[C@@H]2NC(=O)[C@H](CC(=O)O)NC(=O)[C@H](Cc3ccc(OCC(=O)O)cc3)NC(=O)[C@H](CCCCNC(=N)N)NC(=O)CSC[C@@H](C(=O)N[C@@H](CN)C(=O)N[C@@H](CCC(=O)O)C(=O)NCCCCCCCCCCCC(=O)O)NC(=O)[C@H](C(C)O)NC(=O)[C@H](C(C)C)NC(=O)[C@H](CC3CCCCC3)NC(=O)[C@H](CCN)NC(=O)[C@@H](CC(C)C)NC(=O)[C@H](CCCN)NC(=O)[C@H](CCCNC(N)=O)NC(=O)[C@H](Cc3ccc(-c4ccccc4)cc3)NC(=O)[C@H](C(C)C)NC2=O)c1` (stereo partly drawn) [Compound 3188] ({CH2CO}-[hArg]Y(Carboxymethyl)D[Phe(3-Me)]V[Bip][Cit][Orn][dL][Dab][Cha]V[Thr(3ξ)]C[Dap]E[12Ado]-OH; thioether N-14) the figure was 302 nM; with `CC(C)C[C@@H]1NC(=O)[C@H](Cc2c[nH]c3ccccc23)NC(=O)[C@H](CC(=O)O)NC(=O)[C@H](Cc2ccc(OCC(=O)O)cc2)NC(=O)[C@H](CCCCNC(=N)N)NC(=O)CSC[C@@H](C(=O)NCC(=O)NCCOCCOCC(=O)N[C@@H](CCCN)C(=O)NCCOCCOCC(=O)NCCCCCCCCCCCC(=O)O)NC(=O)[C@H](CO)NC(=O)[C@H](C(C)C)NC(=O)[C@H](CC2CCCCC2)NC(=O)[C@H](CCN)NC(=O)[C@@H](CC(C)C)NC(=O)[C@H](CCCN)NC(=O)[C@H](C(C)C)NC(=O)[C@H](Cc2ccc(-c3ccccc3)cc2)NC1=O` [Compound 3189] ({CH2CO}-[hArg]Y(Carboxymethyl)DWL[Bip]V[Orn][dL][Dab][Cha]VSCG[AEEA][Orn][AEEA][12Ado]-OH; thioether N-14), 21.7 nM.
